The assay concerns the target MHC class I molecules K^b (Mus musculus, UniProt P01901). Nature of the assay: biochemical. Conditions: 48 hours at 18° C.; read-out: K^b-binding.

Ends that are not written are not given here.

Chain of MHC class I molecules K^b (P01901 whole entry, looked up): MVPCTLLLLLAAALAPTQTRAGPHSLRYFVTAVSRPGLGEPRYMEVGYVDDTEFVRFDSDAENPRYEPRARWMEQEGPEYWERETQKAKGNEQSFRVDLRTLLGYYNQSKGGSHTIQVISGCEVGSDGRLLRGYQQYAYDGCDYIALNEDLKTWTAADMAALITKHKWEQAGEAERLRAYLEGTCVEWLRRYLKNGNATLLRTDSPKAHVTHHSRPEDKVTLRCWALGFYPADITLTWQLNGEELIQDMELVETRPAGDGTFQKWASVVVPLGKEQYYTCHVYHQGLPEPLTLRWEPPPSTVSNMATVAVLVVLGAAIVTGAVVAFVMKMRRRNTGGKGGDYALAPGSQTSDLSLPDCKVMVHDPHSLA

Consider IVSPFIPL [IVSPFIPL], for which the IC50 stood at 773 nM.

The record behind these values is patent publication US20110263822A1, “COMPOSITION FOR THE PROPHYLAXIS AND TREATMENT OF HBV INFECTIONS AND HBV-MEDIATED DISEASES” (Rhein Biotech Gesellschaft Fur Neue Biotechnologische …, priority 2003, published 2011).
